Source: patent US20220401352A1, “A COSMETIC COMPOSITION” (Conopco, Inc., d/b/a UNILEVER, priority 2019, published 2022)
Where a name gives a salt, the structure may show the parent alone.

Assays:
THP1-XBlue cells = experiment: Cell viability in the THP-1 in vitro assay; type: cell-based, human; details: PMA-differentiated THP1-XBlue cells co-treated with LPS and composition, 24 hours; percentage to non-treated cells (=100%)
Protocol: (§1) The following procedure was used to determine the anti-inflammation efficacy: THP1-XBlue™ (Cat No: thpx-sp, InvivoGen) cells were cultured as suspense in RPMI 1640 medium supplemented with 10% FBS, penicillin (10 U/mL)-streptomycin (10 μg/ML). Cells were differentiated in 24-well plates at the density of 5×10^5 cells/well with 100 nM PMA for 72 hours. Cells were then co-treated with pure E. coli ipopolysaccharides (LPS) and various compositions. After 24 hours, the supernatants were collected and measured for interleukin (IL)-6 as a pro-inflammatory biomarker using enzyme-linked immunosorbent assay (ELISA). IL-6 is a cytokine, or cell-signaling protein, encoded in humans by the IL-6 gene which is both pro-inflammatory and anti-inflammatory and which stimulates the immune response to inflammation. Expression of IL-6 was calculated as the percentage to LPS-treated cells which was designated as 100%. It can be considered as no anti-inflammatory effect if the calculated result is over 100%. Cell viability was calculated as the percentage to non-treated cells which was designated as 100%. P value was analyzed by Student's t-test comparing combination groups and individual compound groups (expression of IL-6). P value <0.05 indicates synergistic effect.

interleukin (IL)-6 = experiment: Human immune cell line THP-1 in vitro assay: IL-6 in supernatant by ELISA after co-treatment with LPS; type: cell-based; details: PMA-differentiated THP1-XBlue cells co-treated with E. coli LPS and composition, 24 hours; percentage to LPS-treated cells (=100%)
Protocol: as §1, with “Human Immune Cell Line THP-1 Invitro Assay The” for “The”, “IL-6).” for “IL-6). P value <0.05 indicates synergistic effect.”

Cc1cc(CC(C)CC(C)(C)C)n(O)c(=O)c1 (stereo not shown) [B, 1-hydroxy-4-methyl-6-(2,4,4-trimethylpentyl)-2(1H) pyridinone monoethanolamine salt]
Cell Viability (%) (THP1-XBlue cells): 81%
expression of IL-6 (%) (interleukin (IL)-6): 76.4%

OCc1ccccc1O[C@@H]1O[C@H](CO)[C@@H](O)[C@H](O)[C@H]1O [C, salicin]
Cell Viability (%) (THP1-XBlue cells): 86%
expression of IL-6 (%) (interleukin (IL)-6): 65.0%
